Measurements: patent publication US4767767A, “2-pyrrolidinylethyl-2-(7-trifluoromethyl-4-quinolyl-aminobenzoate having analgesic, antipyretic and anti-inflammatory activities” (Ferrer Internacional S.A., priority 1982, dated 1988)
Like-named read-outs stand apart in the source and are kept apart here.

How the values were obtained:
Carrageenin test in rats = test: anti-inflammatory activity, Carrageenin test in rats (Winter et al. 1962); type: in vivo, rat; settings: read-out: Antiinflammatory activity
Excerpt: (§1) The compounds show an outstanding analgesic activity, especially upon oral application versus the brewer's yeast test in rat as described by Winter et al. (J. Pharm. Exp. Ther., 150(1), 165-171, 1965). Also these compounds have shown anti-inflammatory activity especially upon oral application versus the Carrageenin test in rats as described by Winter et al. (Proc. Soc. Exp. Biol. Med., 111, 544-547, 1962). The results for the analgesic evaluation are expressed as ED50 and those for the anti-inflammatory evaluation expressed as the activity rate observed on administering the compounds at a dose of 5 mg/kg.

[1] = tested on: brewer's yeast test in rat; test: analgesic activity, brewer's yeast test in rat (Winter et al. 1965); type: in vivo; settings: read-out: Analgesic activity ED50
Excerpt: as §1

[2] = acute oral toxicity LD50 in mice (Reed-Muench method modified by Pizzi); settings: mouse, in vivo; oral administration to mice; as free base
Excerpt: Moreover, the above compounds have shown a low toxicity which makes them useful in therapy. […] Evaluation was made according to the method by Reed-Muench as modified by Pizzi (Human & Biology, 22(3), 151-190, 1950) by oral administration to mice.

[3] = brewer's yeast test, rat, oral, as free base
[4] = Carrageenin test, rat, oral, dose of 5 mg/kg, as free base

Row | Compound | inhibition in vivo at 5 mg/kg (Carrageenin test in rats; Rattus norvegicus, po) | ED50 [1, 3] | ED50 ([1]; Rattus norvegicus, po) | LD50 [2] | inhibition in vivo at 5 mg/kg (Carrageenin test in rats; [4])
1 | CC(=O)Oc1ccccc1C(=O)O [Acetylsalycilic acid, acetylsalicylic acid, reference compound] | 23.2% | 73 mg/kg |  |  | 
2 | O=C(OCCN1CCN(c2cccc(C(F)(F)F)c2)CC1)c1ccccc1Nc1ccnc2cc(C(F)(F)F)ccc12 [Antrafenine, reference compound] | 3.6% |  | 43 mg/kg |  | 
3 | O=C(OCCN1CCCC1)c1ccccc1Nc1ccnc2cc(Cl)ccc12 [Example 1, 2-Pyrrolidinylethyl 2-(7-chloro-4-quinolyl)aminobenzoate] |  | 38 mg/kg |  | 2000 mg/kg | 35.6%
4 | O=C(OCCN1CCCC1)c1ccccc1Nc1ccnc2cc(C(F)(F)F)ccc12 [Example 2, 2-Pyrrolidinylethyl 2-(7-trifluoromethyl-4-quinolyl)aminobenzoate] |  | 2.9 mg/kg |  | 630 mg/kg | 38%
5 | O=C(OCCN1CCCCC1)c1ccccc1Nc1ccnc2cc(Cl)ccc12 [Example 3, 2-Piperidinylethyl-2-(7-chloro-4-quinolyl)aminobenzoate] |  | 67 mg/kg |  | > 2000 mg/kg | 23.1%
6 | O=C(OCCN1CCCCC1)c1ccccc1Nc1ccnc2cc(C(F)(F)F)ccc12 [Example 4, 2-Piperidinylethyl 2-(7-trifluoromethyl-4-quinolyl)aminobenzoate] |  | 3 mg/kg |  | 635 mg/kg | 23.2%
7 | O=C(OCCN1CCCCCC1)c1ccccc1Nc1ccnc2cc(Cl)ccc12 [Example 5, 2-Homopiperidinylethyl 2-(7-chloro-4-quinolyl)aminobenzoate] |  | 5.4 mg/kg |  |  | 17.3%
8 | O=C(OCCN1CCCCCC1)c1ccccc1Nc1ccnc2cc(C(F)(F)F)ccc12 [Example 6, 2-Homopiperidinylethyl 2-(7-trifluoromethyl-4-quinolyl)aminobenzoate] |  | 7 mg/kg |  |  | 27.9%
9 | O=C(OCCOCCN1CCCC1)c1ccccc1Nc1ccnc2cc(Cl)ccc12 [Example 7, 2-(2-Pyrrolidineethoxy)ethyl 2-(7-chloro-4-quinolyl)aminobenzoate] |  | 18.5 mg/kg |  |  | 5.1%
10 | O=C(OCCOCCN1CCCC1)c1ccccc1Nc1ccnc2cc(C(F)(F)F)ccc12 [Example 8, 2-(2-Pyrrolidineethoxy)ethyl 2-(7-trifluoromethyl-4-quinolyl)aminobenzoate] |  | 14.7 mg/kg |  |  | 26.2%
11 | O=C(OCCOCCN1CCCCC1)c1ccccc1Nc1ccnc2cc(Cl)ccc12 [Example 9] |  | 21.7 mg/kg |  |  | 33.2%
12 | O=C(OCCOCCN1CCCCCC1)c1ccccc1Nc1ccnc2cc(Cl)ccc12 [Example 11, 2-(2-Homopiperidineethoxy)ethyl 2-(7-chloro-4-quinolyl)aminobenzoate] |  | 13.3 mg/kg |  |  | 21.2%
13 | O=C(OCCOCCN1CCCCCC1)c1ccccc1Nc1ccnc2cc(C(F)(F)F)ccc12 [Example 12, 2-(2-Homopiperidineethoxy)ethyl 2-(7-trifluoromethyl-4-quinolyl)aminobenzoate] |  | 6.6 mg/kg |  |  | 28.8%
14 | O=C(OCC1CCCCO1)c1ccccc1Nc1ccnc2cc(Cl)ccc12 (stereo not shown) [Example 14, 2-Tetrahydropyranylmethyl 2-(7-chloro-4-quinolyl)aminobenzoate] |  | 22 mg/kg |  |  | 19.5%
15 | O=C(OCC1CCCCO1)c1ccccc1Nc1ccnc2cc(C(F)(F)F)ccc12 (stereo not shown) [Example 15, 2-Tetrahydropyranylmethyl 2-(7-trifluoromethyl-4-quinolyl)aminobenzoate] |  | 9.3 mg/kg |  |  | 26.1%
16 | O=C(OCOCc1ccccc1)c1ccccc1Nc1ccnc2cc(Cl)ccc12 [Example 16, Benzyloxymethyl 2-(7-chloro-4-quinolyl)aminobenzoate] |  | 6.3 mg/kg |  | > 8000 mg/kg | 27.7%
17 | O=C(OCOCc1ccccc1)c1ccccc1Nc1ccnc2cc(C(F)(F)F)ccc12 [Example 17, Benzyloxymethyl 2-(7-trifluoromethyl-4-quinolyl)aminobenzoate] |  | 64.5 mg/kg |  |  | 30.5%
18 | O=C(OCOC(=O)c1ccccc1Nc1ccnc2cc(Cl)ccc12)c1ccccc1 [Example 18, Benzoyloxymethyl 2-(7-chloro-4-quinolyl)aminobenzoate] |  | 82.5 mg/kg |  |  | 31%
19 | O=C(OCOC(=O)c1ccccc1Nc1ccnc2cc(C(F)(F)F)ccc12)c1ccccc1 [Example 19, Benzoyloxymethyl 2-(7-trifluoromethyl-4-quinolyl)aminobenzoate] |  | 3.8 mg/kg |  |  | 30.5%
20 | O=C(OC1OC(=O)c2ccccc21)c1ccccc1Nc1ccnc2cc(Cl)ccc12 (stereo not shown) [Example 20, 1(3H)-isobenzofuranone-3-yl 2-(7-chloro-4-quinolyl)aminobenzoate] |  | 71 mg/kg |  |  | 26.2%
21 | O=C(OC1OC(=O)c2ccccc21)c1ccccc1Nc1ccnc2cc(C(F)(F)F)ccc12 (stereo not shown) [Example 21, 1(3H)-isobenzofuranone-3-yl 2-(7-trifluoromethyl-4-quinolyl)aminobenzoate] |  | 26 mg/kg |  |  | 38.4%
22 | O=C(OCC(O)CO)c1ccccc1Nc1ccnc2c(C(F)(F)F)cccc12 (stereo not shown) [Floctafenine, reference compound] |  | 2.2 mg/kg |  |  | 21.6%
23 | O=C(OCC(O)CO)c1ccccc1Nc1ccnc2cc(Cl)ccc12 (stereo not shown) [Glafenine, reference compound] | 25.6% |  | 26.5 mg/kg | 2100 mg/kg | 
